Measured values: patent publication US20200223889A1, “Bicyclic Compounds Capable of Binding to Melanocortin 4 Receptor” (Novo Nordisk A/S, priority 2017, published 2020)
Positions of bridges follow the written chain, without caps; N, C: chain ends. Non-standard residues stand in square brackets, D forms with d. Residues, ends and D or L forms follow the SMILES beside them. Thz = O=C(O)[C@@H]1CSCN1

Assay: In vivo obese model: DIO mice treated once daily, food intake and body weight
Procedure: Stimulation of MC4R signaling is reported to modulate energy intake and expenditure in both humans and rodents. In order to test the effect of MC4R agonists on food intake and body weight, diet-induced obese (DIO) mice were treated once daily with compounds to assess weight loss efficacy.
All animal protocols were approved by an Institutional Animal Care and Use Committee and Ethical Review Committee of Novo Nordisk. Animals were housed according to Novo Nordisk rodent housing standards, and were given ad libitum access to food and water under controlled lighting (12 h:12 h light/dark cycle; lights off 17:00-05:00), temperature (23±2° C.) and relative humidity (50±20%) conditions. Diet-induced obese (DIO) male C57BL/6J mice maintained on a high fat diet (60% kcal fat, 5.24 kcal/gram; RD12492, Research Diets, New Brunswick, N.J., USA) for 22 weeks were obtained from Charles River (France). Upon arrival, the mice were single-housed (one mouse per cage) and allowed to acclimate to their new environment for two weeks prior to the start of treatment.
Prior to initiation of the study, animals were single-housed and acclimated to handling for 7 days. The DIO mice were distributed into groups (n=8/group) such that statistical variations in the mean and standard deviations of fat mass and body weight were minimized between groups. Animals were dosed once daily, subcutaneously at 16:00 with either vehicle or compound
Body weight and food intake were measured immediately prior to dosing each day. The average starting body weight of the mice prior to start of treatment was 47.2±0.2 grams.

[1] = 0.3 μmol/kg once daily s.c., day 1, mean ± SEM
[2] = 0.3 μmol/kg once daily s.c., day 2, mean ± SEM
[3] = 0.3 μmol/kg once daily s.c., day 3, mean ± SEM
[4] = 0.3 μmol/kg once daily s.c., day 4, mean ± SEM
[5] = 0.3 μmol/kg once daily s.c., day 5, mean ± SEM
[6] = 0.3 μmol/kg once daily s.c., day 6, mean ± SEM
[7] = 0.3 μmol/kg once daily s.c., day 7, mean ± SEM
[8] = 0.3 μmol/kg once daily s.c., day 8, mean ± SEM
[9] = 0.3 μmol/kg once daily s.c., day 9, mean ± SEM
[10] = 0.3 μmol/kg once daily s.c., day 10, mean ± SEM
[11] = 0.3 μmol/kg once daily s.c., day 11, mean ± SEM
[12] = 0.3 μmol/kg once daily s.c., day 12, mean ± SEM
[13] = 0.3 μmol/kg once daily s.c., day 13, mean ± SEM
[14] = 0.3 μmol/kg once daily s.c., day 14, mean ± SEM
[15] = 0.3 μmol/kg once daily s.c., day 15, mean ± SEM
[16] = 0.3 μmol/kg once daily s.c., day 16, mean ± SEM
[17] = 0.3 μmol/kg once daily s.c., day 17, mean ± SEM
[18] = 0.3 μmol/kg once daily s.c., day 18, mean ± SEM
[19] = 0.3 μmol/kg once daily s.c., day 19, mean ± SEM
[20] = 0.3 μmol/kg once daily s.c., day 20, mean ± SEM
[21] = 1.5 μmol/kg once daily s.c., day 1, mean ± SEM
[22] = 1.5 μmol/kg once daily s.c., day 2, mean ± SEM
[23] = 1.5 μmol/kg once daily s.c., day 3, mean ± SEM
[24] = 1.5 μmol/kg once daily s.c., day 4, mean ± SEM
[25] = 1.5 μmol/kg once daily s.c., day 5, mean ± SEM
[26] = 1.5 μmol/kg once daily s.c., day 6, mean ± SEM
[27] = 1.5 μmol/kg once daily s.c., day 7, mean ± SEM
[28] = 1.5 μmol/kg once daily s.c., day 8, mean ± SEM
[29] = 1.5 μmol/kg once daily s.c., day 9, mean ± SEM
[30] = 1.5 μmol/kg once daily s.c., day 10, mean ± SEM
[31] = 1.5 μmol/kg once daily s.c., day 11, mean ± SEM
[32] = 1.5 μmol/kg once daily s.c., day 12, mean ± SEM
[33] = 1.5 μmol/kg once daily s.c., day 13, mean ± SEM
[34] = 1.5 μmol/kg once daily s.c., day 14, mean ± SEM
[35] = 1.5 μmol/kg once daily s.c., day 15, mean ± SEM
[36] = 1.5 μmol/kg once daily s.c., day 16, mean ± SEM
[37] = 1.5 μmol/kg once daily s.c., day 17, mean ± SEM
[38] = 1.5 μmol/kg once daily s.c., day 18, mean ± SEM
[39] = 1.5 μmol/kg once daily s.c., day 19, mean ± SEM
[40] = 1.5 μmol/kg once daily s.c., day 20, mean ± SEM

## C[C@@H]1NC(=O)[C@H](CCCCN)NC(=O)[C@@H]2CSSC[C@H](NC(=O)[C@H](Cc3c[nH]c4ccccc34)NC(=O)[C@H](C)NC(=O)[C@@H](CCCCN)NC1=O)C(=O)N1CSC[C@H]1C(=O)N[C@@H](Cc1c[nH]cn1)C(=O)N[C@H](Cc1ccccc1)C(=O)N[C@@H](Cc1c[nH]cn1)C(=O)N[C@@H](Cc1c[nH]c3ccccc13)C(=O)N2 [Chem. 114, c[c[Cys-THAZ-His-D-Phe-His-Trp- Cys]-Lys-Ala-D-Lys-Ala-Trp]] (cyclo(AWC[Thz]H[dF]HWCKA[dK]); disulfide 3-9)
0.3 μmol/kg once daily s.c., day 0, mean ± SEM
  Daily food intake, kcals: 13.4 ± 0.6 kcals
[1]
  Cumulative food intake, kcals: 7.7 ± 0.5 kcals
  Daily food intake, kcals: 7.7 ± 0.5 kcals
  Relative body weight, % initial: 96 ± 0.3 % initial
[2]
  Cumulative food intake, kcals: 13.6 ± 1.5 kcals
  Daily food intake, kcals: 6 ± 1.2 kcals
  Relative body weight, % initial: 94.2 ± 0.3 % initial
[3]
  Cumulative food intake, kcals: 23.5 ± 2.1 kcals
  Daily food intake, kcals: 9.9 ± 0.9 kcals
  Relative body weight, % initial: 93.6 ± 0.5 % initial
[4]
  Cumulative food intake, kcals: 34.3 ± 2.5 kcals
  Daily food intake, kcals: 10.7 ± 0.7 kcals
  Relative body weight, % initial: 91.8 ± 0.7 % initial
[5]
  Cumulative food intake, kcals: 44.8 ± 2.9 kcals
  Daily food intake, kcals: 10.5 ± 0.8 kcals
  Relative body weight, % initial: 91.1 ± 0.6 % initial
[6]
  Cumulative food intake, kcals: 55.6 ± 3.7 kcals
  Daily food intake, kcals: 10.8 ± 0.9 kcals
  Relative body weight, % initial: 89.9 ± 0.9 % initial
[7]
  Cumulative food intake, kcals: 67.7 ± 4.3 kcals
  Daily food intake, kcals: 12.1 ± 0.9 kcals
  Relative body weight, % initial: 89.5 ± 0.9 % initial
[8]
  Cumulative food intake, kcals: 78.8 ± 4.5 kcals
  Daily food intake, kcals: 11.1 ± 0.6 kcals
  Relative body weight, % initial: 88.6 ± 0.9 % initial
[9]
  Cumulative food intake, kcals: 90.8 ± 4.7 kcals
  Daily food intake, kcals: 12.1 ± 0.6 kcals
  Relative body weight, % initial: 88.6 ± 0.9 % initial
[10]
  Cumulative food intake, kcals: 103.2 ± 5.3 kcals
  Daily food intake, kcals: 12.3 ± 0.8 kcals
  Relative body weight, % initial: 87.7 ± 1.1 % initial
[11]
  Cumulative food intake, kcals: 114.2 ± 5.8 kcals
  Daily food intake, kcals: 11 ± 0.7 kcals
  Relative body weight, % initial: 88.2 ± 1.1 % initial
[12]
  Cumulative food intake, kcals: 127.6 ± 6.1 kcals
  Daily food intake, kcals: 13.4 ± 0.6 kcals
  Relative body weight, % initial: 87.2 ± 1.1 % initial
[13]
  Cumulative food intake, kcals: 140.8 ± 6.4 kcals
  Daily food intake, kcals: 13.2 ± 0.7 kcals
  Relative body weight, % initial: 87.1 ± 1.2 % initial
[14]
  Cumulative food intake, kcals: 153.9 ± 6.9 kcals
  Daily food intake, kcals: 13.2 ± 0.7 kcals
  Relative body weight, % initial: 87.3 ± 1.3 % initial
[15]
  Cumulative food intake, kcals: 167.5 ± 7.5 kcals
  Daily food intake, kcals: 13.6 ± 0.7 kcals
  Relative body weight, % initial: 87.4 ± 1.3 % initial
[16]
  Cumulative food intake, kcals: 181.2 ± 7.8 kcals
  Daily food intake, kcals: 13.7 ± 0.5 kcals
  Relative body weight, % initial: 87.5 ± 1.3 % initial
[17]
  Cumulative food intake, kcals: 195.8 ± 7.9 kcals
  Daily food intake, kcals: 14.5 ± 0.5 kcals
  Relative body weight, % initial: 87.4 ± 1.3 % initial
[18]
  Cumulative food intake, kcals: 211 ± 8.3 kcals
  Daily food intake, kcals: 15.3 ± 0.6 kcals
  Relative body weight, % initial: 87.9 ± 1.4 % initial
[19]
  Cumulative food intake, kcals: 225.4 ± 8.7 kcals
  Daily food intake, kcals: 14.3 ± 0.8 kcals
  Relative body weight, % initial: 88.6 ± 1.4 % initial
[20]
  Cumulative food intake, kcals: 241.2 ± 8.5 kcals
  Daily food intake, kcals: 15.9 ± 0.5 kcals
  Relative body weight, % initial: 88.9 ± 1.3 % initial
0.3 μmol/kg once daily subcutaneously
  reduction in body weight, relative to initial body weight: 11.1±1.3%
1.5 μmol/kg once daily s.c., day 0, mean ± SEM
  Daily food intake, kcals: 13.9 ± 1.3 kcals
[21]
  Cumulative food intake, kcals: 5.5 ± 0.8 kcals
  Daily food intake, kcals: 5.5 ± 0.8 kcals
  Relative body weight, % initial: 95.1 ± 0.4 % initial
[22]
  Cumulative food intake, kcals: 10.7 ± 1.4 kcals
  Daily food intake, kcals: 5.2 ± 0.8 kcals
  Relative body weight, % initial: 93 ± 0.4 % initial
[23]
  Cumulative food intake, kcals: 19.8 ± 2.2 kcals
  Daily food intake, kcals: 9.1 ± 0.8 kcals
  Relative body weight, % initial: 92.1 ± 0.6 % initial
[24]
  Cumulative food intake, kcals: 30.5 ± 3.1 kcals
  Daily food intake, kcals: 10.7 ± 1.2 kcals
  Relative body weight, % initial: 91.3 ± 0.7 % initial
[25]
  Cumulative food intake, kcals: 41.1 ± 4 kcals
  Daily food intake, kcals: 10.7 ± 0.9 kcals
  Relative body weight, % initial: 90.6 ± 0.9 % initial
[26]
  Cumulative food intake, kcals: 51.7 ± 4.6 kcals
  Daily food intake, kcals: 10.6 ± 0.8 kcals
  Relative body weight, % initial: 89.6 ± 0.8 % initial
[27]
  Cumulative food intake, kcals: 61.9 ± 5.4 kcals
  Daily food intake, kcals: 10.2 ± 1 kcals
  Relative body weight, % initial: 88.6 ± 0.9 % initial
[28]
  Cumulative food intake, kcals: 73.8 ± 5.8 kcals
  Daily food intake, kcals: 11.9 ± 0.7 kcals
  Relative body weight, % initial: 87.8 ± 0.8 % initial
[29]
  Cumulative food intake, kcals: 86.2 ± 6.4 kcals
  Daily food intake, kcals: 12.4 ± 0.8 kcals
  Relative body weight, % initial: 87.8 ± 1 % initial
[30]
  Cumulative food intake, kcals: 97.5 ± 7.5 kcals
  Daily food intake, kcals: 11.3 ± 1.2 kcals
  Relative body weight, % initial: 87.1 ± 0.9 % initial
[31]
  Cumulative food intake, kcals: 110.4 ± 8.4 kcals
  Daily food intake, kcals: 12.8 ± 1.4 kcals
  Relative body weight, % initial: 86.9 ± 0.9 % initial
[32]
  Cumulative food intake, kcals: 123.3 ± 9.2 kcals
  Daily food intake, kcals: 12.9 ± 0.9 kcals
  Relative body weight, % initial: 86.6 ± 1.1 % initial
[33]
  Cumulative food intake, kcals: 136.4 ± 9.8 kcals
  Daily food intake, kcals: 13.2 ± 0.7 kcals
  Relative body weight, % initial: 86.7 ± 1.3 % initial
[34]
  Cumulative food intake, kcals: 149.3 ± 10.7 kcals
  Daily food intake, kcals: 12.9 ± 1.1 kcals
  Relative body weight, % initial: 86.7 ± 1.3 % initial
[35]
  Cumulative food intake, kcals: 162.8 ± 11.1 kcals
  Daily food intake, kcals: 13.5 ± 0.6 kcals
  Relative body weight, % initial: 86 ± 1.2 % initial
[36]
  Cumulative food intake, kcals: 175.1 ± 11.7 kcals
  Daily food intake, kcals: 12.2 ± 0.7 kcals
  Relative body weight, % initial: 86 ± 1.3 % initial
[37]
  Cumulative food intake, kcals: 188.7 ± 12.2 kcals
  Daily food intake, kcals: 13.6 ± 0.8 kcals
  Relative body weight, % initial: 85.7 ± 1.2 % initial
[38]
  Cumulative food intake, kcals: 202.5 ± 13.1 kcals
  Daily food intake, kcals: 13.8 ± 1 kcals
  Relative body weight, % initial: 85.9 ± 1.2 % initial
[39]
  Cumulative food intake, kcals: 217 ± 13.9 kcals
  Daily food intake, kcals: 14.5 ± 0.9 kcals
  Relative body weight, % initial: 86.4 ± 1.3 % initial
[40]
  Cumulative food intake, kcals: 231.8 ± 13.6 kcals
  Daily food intake, kcals: 14.8 ± 0.8 kcals
  Relative body weight, % initial: 86.8 ± 1.3 % initial
1.5 μmol/kg once daily subcutaneously
  reduction in body weight, relative to initial body weight: 13.2±1.3%
Once daily subcutaneous treatment
  food intake (in words): transient reduction in food intake that returned to baseline levels during the second week of treatment
